Reference: patent publication US5045566A, “Novel imidate insecticides” (ICI Americas Inc., priority 1989, dated 1991)

Assays:
Format in all cases: in vivo
[1] = test system: Housefly [Musca domestica]; experiment: Housefly contact mortality in dishes (HF), 48 hours; details: μg of test compound per 25 female flies
Procedure, shortened: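 LC50 (μg compound per 25 female flies) derives from dosage-mortality curves of 48 h kill. Flies, females 1-2 days old, were held 25 per cage over a dish coated with dried acetone deposit, starting at 100 μg per cage and descending.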

[2] = test system: Cabbage Looper [Trichoplusia ni (Hubner)]; experiment: Cabbage looper leaf dip (CL), 3-5 days; details: percent in solution, second-instar larvae
Procedure, shortened: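 Leaf dip, squash cotyledons, 50-50 acetone-water, top dose 0.1% and lower. 5 second-instar larvae/dish, moist filter paper, high-humidity chamber. Mortality at 3-5 d; LC50 (% in solution) from dosage-mortality curves.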

[3] = test system: Rice water weevil [Lissorhoptrus oryzophilus (Kuschel)]; experiment: Rice water weevil topical (RWW), 48 hours; details: μg of test compound per weevil, female adults
Protocol: The compounds in Tables 1 and 2 above were tested for insecticidal activity using the following testing procedures. LC50 values, based on the results of these tests and calculated according to dosage-mortality curves, are expressed in Table 3.
Rice water weevil [Lissorhoptrus oryzophilus (Kuschel)]:
Test compounds were diluted in acetone. Droplets (1 ul) of test solutions were applied to the ventral abdomens of ten female adult weevils. The treated weevils were placed in containers with wet cotton balls and rice foliage. The containers were covered and kept at a temperature of about 25° C. Mortality was recorded after 48 hours. Test concentrations ranged from […] down to that at which 50% mortality occurred. The LC50 values are expressed below in Table 3 under the heading "RWW" in terms of μg of test compound per weevil.

[4] = test system: Black Bean Aphid [Aphis fabae (Scop.)]; experiment: Black bean aphid spray test on nasturtium (BBA), 48 hours; details: percent of test compound in sprayed solution
Procedure, shortened: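 LC50, given as percent test compound in the sprayed liquid, was calculated from dosage-mortality curves using concentrations from 0.05% downward. Sprays in 50:50 acetone-water went to runoff on ~5 cm nasturtiums carrying 25-50 aphids of mixed ages, one day after infestation. Deaths were counted 48 h later under greenhouse conditions.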

[5] = test system: Tobacco Budworm [Heliothis virescens (Fabricius)] eggs; experiment: Tobacco budworm eggs (TBW-E); details: percent in solution; 2-day old eggs
Procedure, shortened: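 LC50 values (percent test compound in the dip solution) were calculated from dosage-mortality curves. Egg patches, 2 days old, were dipped in acetone solutions at concentrations from 0.1% downward and held at 78° F on rearing medium until control larvae hatched and fed.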

[6] = test system: Maize weevil [Sitophilus zeamais (Motschulsky)]; experiment: Maize weevil on dipped corn seeds (MW), 48 hours; details: percent in solution, adult weevils
Procedure, shortened: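 LC50, given as percent of compound in dipping solution, comes from dosage-mortality curves over concentrations descending from 0.01%. Four corn seeds soaked 2-3 s in 50:50 acetone:water solution were dried and held with 10 adult weevils, about 25° C, mortality read after 48 h.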

[7] = test system: Tobacco Budworm [Heliothis virescens (Fabricius)] larvae; experiment: Tobacco budworm larvae, contact (TBW-C), 5 days; details: percent in solution, second-instar larvae
Procedure, shortened: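 Cotton cotyledons dipped 2–3 s in compound in 50-50 acetone-water, dried, then infested with 5 second-instar larvae and held 5 days at high humidity. Mortality scored; LC50 from dosage-mortality curves, expressed as percent compound in solution, concentrations from 0.1% downward.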

[8] = test system: Beet Armyworm (Spodoptera exigua); experiment: Beet armyworm leaf dip (BAW), 5 days; details: percent in solution; second-instar larvae; five days
Procedure, shortened: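 Five second-instar larvae per dish fed on dried sugar beet leaves previously dipped 2–3 s in acetone-water (1:1) test solutions up to 0.1%. Kept at high humidity, with deaths counted after five days; LC50 as % in solution via dosage-mortality curves.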

[9] = test system: Aster Leafhopper [Macrosteles fascifrens (Stal)]; experiment: Aster leafhopper on dipped oat seedlings (LH), 48 hours; details: percent in solution, adults/nymphs
Procedure, shortened: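 LC50 values, given as percent of test compound in the dip solution, were derived from dosage-mortality curves over concentrations from 0.05% downward. Mortality was counted 48 hours after ten leafhopper adults/nymphs were enclosed on treated seedlings. The seedlings were oats, about 10 cm tall, briefly dipped in 50-50 acetone-water.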

SMILES	LC50 HF [1]	LC50 CL [2]	LC50 RWW [3]	LC50 BBA [4]	LC50 TBW E (eggs) [5]	LC50 MW [6]	LC50 TBW C (contact) [7]	LC50 BAW [8]	LC50 LH [9]
Fc1ccc(N=C(OCc2cccc(Oc3ccccc3)c2)C2CC2)cc1Cl [Compound 113]	15 µg	0.005%	> 2.5 µg						
CC(C)C(=Nc1ccc(F)c(Cl)c1)OCc1cc(Oc2ccc(F)cc2)ccc1F [Compound 230]	36 µg	0.0004%	> 2.5 µg	0.01%	0.1%	0.038%			
CC(C)C(=Nc1ccc(F)c(Br)c1)OCc1cccc(Oc2ccccc2)c1 [Compound 254]	6 µg	0.001%	> 2.5 µg	0.001%	0.026%				
CC(C)C(=Nc1ccc(F)c(Cl)c1)OCc1cccc(Oc2ccc(F)cc2)c1F [Compound 262]	26 µg	0.0004%	> 2.5 µg	0.03%	> 0.1%	0.005%			
CC(C)C(=Nc1cccc(Cl)c1)OCc1cccc(Oc2ccc(Cl)cc2)c1 [Compound 270]	12 µg	0.00025%		> 0.05%	> 0.01%	> 0.01%	> 0.0015%	0.005%	0.003%
CC(C)C(=Nc1cccc(I)c1)OCc1ccc(F)c(Oc2ccc(F)cc2)c1 [Compound 279]	4 µg	0.00008%		0.0005%	0.016%	> 0.01%	0.007%	0.0025%	0.0003%
CC(C)(F)C(=Nc1ccc(F)c(Cl)c1)OCc1ccc(F)c(Oc2ccc(F)cc2)c1 [Compound 310]	4.5 µg	0.00006%	> 2.5 µg	0.0006%	0.015%				
CC(C)C(=Nc1ccc(C(F)(F)F)cc1)OCc1ccc(F)c(Oc2ccc(F)cc2)c1 [Compound 314]	21 µg	0.00005%	0.11 µg		0.012%				
CC(C)C(=Nc1ccc(F)c(Cl)c1)OCc1ccc(F)c(Oc2ccc(F)c(F)c2)c1 [Compound 346]	7.2 µg	> 0.1%		0.0008%	> 0.1%	> 0.01%	0.0002%	> 0.1%	0.05%
CC(C)C(=Nc1ccc(OC(F)(F)F)cc1)OCc1ccc(F)c(Oc2ccc(F)c(F)c2)c1 [Compound 347]	30 µg	0.000075%		0.0002%	> 0.1%	> 0.01%	0.0001%	0.00075%	0.0002%
CC(C)C(=Nc1ccc(F)c(F)c1F)OCc1cccc(Oc2ccc(F)cc2)c1 [Compound 348]	8 µg	0.0002%		0.001%	> 0.1%	> 0.01%	0.00075%	> 0.1%	0.05%
CCOc1ccc(N=C(OCc2ccc(F)c(Oc3ccc(Cl)cc3)c2)C(C)C)cc1Cl [Compound 369]	> 100 µg	0.0016%	> 2.5 µg	0.0003%	> 0.1%	> 0.01%			
CCOc1ccc(N=C(OCc2ccc(F)c(Oc3ccccc3)c2)C(C)C)cc1Cl [Compound 370]	< 100 µg	0.00034%	> 2.5 µg	0.0002%	0.02%	> 0.01%			
CC(C)C(=Nc1cccc(F)c1)OCc1ccc(F)c(Oc2ccc(Cl)cc2)c1 [Compound 375]	7.9 µg	> 0.1%	> 2.5 µg	0.0006%	0.04%	> 0.01%			
CC(C)C(=Nc1ccc(Cl)c(Cl)c1)OCc1ccc(F)c(Oc2ccccc2)c1 [Compound 376]	17 µg	0.00037%	0.1 µg	0.0003%	0.02%	0.0061%			
CC(C)C(=Nc1ccc(C(F)(F)F)c(Br)c1)OCc1ccc(F)c(Oc2ccc(Cl)cc2)c1 [Compound 377]	< 100 µg	0.00062%	> 2.5 µg	0.001%	> 0.1%	> 0.01%			
CC(C)C(=Nc1ccc(Br)cc1)OCc1ccc(F)c(Oc2ccc(Cl)cc2)c1 [Compound 378]	< 100 µg	0.00034%	> 2.5 µg	0.0008%	0.02%	> 0.01%			
CC(C)C(=Nc1ccc(Br)c(Cl)c1)OCc1cccc(Oc2ccc(Cl)cc2)c1 [Compound 380]	> 100 µg	> 0.1%	> 2.5 µg	0.004%	> 0.1%	> 0.01%			
CC(C)C(=Nc1ccc(Br)c(Cl)c1)OCc1ccc(F)c(Oc2ccc(Cl)cc2)c1 [Compound 381]	< 100 µg	0.00092%	> 2.5 µg	0.002%	0.018%	> 0.01%			
CC(C)C(=Nc1ccc(Br)c(Cl)c1)OCc1ccc(F)c(Oc2ccc(F)cc2)c1 [Compound 382]	< 100 µg	0.00029%	> 2.5 µg	0.0003%	0.027%	> 0.01%			
